The test system of experiment [1] is platinum-resistant ovarian cancer (PROC). Put plainly: Randomized phase 3 study ENGOT-ov50/GOG-3029/INNOVATE-3 (NCT03940196): TTFields therapy with weekly paclitaxel vs weekly paclitaxel alone. Format: in vivo, human. From the text:
This randomized phase 3 study investigated TTFields therapy with paclitaxel (TTFields+PTX) vs paclitaxel (PTX) in patients with platinum-resistant ovarian cancer (PROC).
To evaluate the safety and efficacy of TTFields therapy with weekly paclitaxel compared to weekly paclitaxel alone in PROC, the Phase 3 study design shown in FIG. 1 was utilized. ENGOT-ov50/GOG-3029/INNOVATE-3 (NCT03940196) enrolled adults with PROC, ≤5 prior lines of therapy (LOT), ≤2 prior LOT following platinum-resistance, and ECOG 0-1. Patients received TTFields (200 kHz; ≥18 hours/day)+PTX (80 mg/m^2) weekly or PTX. Primary endpoint was overall survival (OS). 558 patients were randomized to receive TTFields+PTX (n=280) or PTX (n=278) March 2019 to November 2021.
Patients were heavily pretreated in the ITT population, as 24.4% of patients had received 4+prior lines of therapy (LOT), and 65.9% had received prior bevacizumab. In the overall intention-to-treat population, TTFields therapy median duration was 15.9 (0.1-159.7) weeks.
Innovate-3 study excluding patients that had received doxorubicin prior to TTFields+Paclitaxel or Paclitaxel
This Example contains further data related to the study of Example 1. FIGS. 10-11 include data of PROC patients that had received doxorubicin prior to treatment or were Doxorubicin-/PLD-naïve and which received treatment comprising TTFields plus Paclitaxel or Paclitaxel alone. With Doxorubicin treatment prior to use, overall survival was 10.97 months with TTFields and 13.21 months without TTFields. […] In addition, without prior use of doxorubicin/PLD, the hazard ratio for TTFields was 0.593 with a p value of 0.005.

Experiment [2] has as its system tumor. Nature of the experiment: Preclinical data (unpublished): tumor fibrosis and tissue conductivity.

As for `CC(=O)O[C@H]1C(=O)[C@@]2(C)[C@H]([C@H](OC(=O)c3ccccc3)[C@]3(O)C[C@H](OC(=O)[C@H](O)[C@@H](NC(=O)c4ccccc4)c4ccccc4)C(C)=C1C3(C)C)[C@]1(OC(C)=O)CO[C@@H]1C[C@@H]2O` [PTX, paclitaxel], the overall survival in experiment [1] (Doxorubicin-/PLD-naïve group without prior use of doxorubicin (Example 2, FIGS. 10-11)) is recorded as 11.93 months; in experiment [1] (patients with Doxorubicin treatment prior to use (Example 2, FIG. 10)), 13.21 months. Moreover, the “overall survival, post-hoc analysis” value in experiment [1] (PLD-naïve subgroup (Example 1, FIG. 7), TTFields+PTX n=113, PTX n=88) was determined as 11.7 months. Besides, the “median overall survival (OS)” value in experiment [1] (overall ITT population, PROC patients, PTX 80 mg/m^2 weekly, TTFields 200 kHz, ≥18 hours/day) turned out to be 11.9 months.

On to `COc1cccc2c1C(=O)c1c(O)c3c(c(O)c1C2=O)C[C@@](O)(C(=O)CO)C[C@@H]3O[C@H]1C[C@H](N)[C@H](O)[C@H](C)O1` [doxorubicin], for which, in experiment [2], the tissue conductivity result is “changes tissue conductivity” and the tumor fibrosis result was “induces tumor fibrosis”.

The record behind these values is US20250281446A1, “COMPOSITIONS, SYSTEMS, AND METHODS FOR TREATING CANCER IN STANDARD OF CARE AND/OR PROFIBROTIC CHEMOTHERAPEUTIC AGENT-NAÏVE PATIENTS USING TUMOR TREATING FIELDS AND CHEMOTHERAPEUTIC AGENTS” (Novocure GmbH, priority 2024, published 2025).
